Measurements: US11274106B2, “Topoisomerase inhibitors with antibacterial and anticancer activity” (THE BOARD OF TRUSTEES OF THE UNIVERSITY OF ILLINOIS, priority 2017, dated 2022)
In brackets after ≈: the same amount, converted by molar mass. Entries after “also recorded” stand apart in the source; their conditions may differ.

How the values were obtained:
S. aureus = assay: Antibacterial MIC, microbroth dilution, S. aureus; type: cell-based; conditions: Staphylococcus aureus
Protocol: (§1) To investigate this possibility, the antibacterial effects of the DNM derivatives was assessed against strains of E. coli, S. aureus, and MRSA using the microbroth dilution method (Table 2).

MRSA = assay: Antibacterial MIC, microbroth dilution, MRSA; type: cell-based, S. aureus; conditions: for MIC: Staphylococcus aureus, MRSA, microbroth dilution
Protocol: as §1

[1] = test system: MDA-MB-231 triple negative breast cancer cells; assay: Antiproliferative SRB assay, MDA-MB-231; type: cell-based; conditions: SRB assay; for IC50: Homo sapiens, MDA-MB-231, 72 h, 72 hour compound exposure, mean ± SEM, read-out: MDA-MB-231 IC50
Protocol: FIG. 1. […] Cell death measured by SRB assay after 72 hour of compound exposure (n≥3 biological replicates, error bars show SEM). IC50 values given as mean±SEM from ≥3 biological replicates.
To investigate the feasibility of developing a class of antitumor antibiotics based upon the DNM scaffold, the ability of the DNM to exert an antiproliferative effect against MDA-MB-231 breast cancer cells was evaluated.

E. coli = assay: Antibacterial MIC, microbroth dilution, E. coli; type: cell-based; conditions: Escherichia coli
Protocol: as §1

Row | SMILES | MIC (S. aureus) [µg/mL] | MIC (MRSA) [µg/mL] | IC50 [1] [nM] | MIC (E. coli) [µg/mL] | Antiproliferative effect against MDA-MB-231 cells ([1]; FIG. 1, 72 hour, listed as 6DNM) | Activity against MRSA (MRSA)
1 | Cc1cc(=O)n(C)c2c3c4c(cc12)c(C)cc(=O)n4CO3 [Compound 1] | 2 (≈ 7.08 µM) | 0.03 (≈ 0.106 µM) | 1100 ± 200 | > 16 |  | 
2 | Cc1cc(=O)n(C)c2c3c4c(cc12)c(C)cc(=O)n4CCO3 [Compound 2] | 1 (≈ 3.37 µM) | 0.06 (≈ 0.202 µM) | 730 ± 90 | > 16 | produces quantitative cell death; also recorded: equipotent to the clinical trial compound vosoraxin | 
3 | CCOC(=O)C1Oc2c3c(cc4c(C)cc(=O)n1c24)c(C)cc(=O)n3C (centres unmarked) [Compound 3] | > 16 | 0.5 (≈ 1.41 µM) | > 10000 | > 16 |  | remains effective against MRSA
4 | Cc1cc(=O)n(C)c2c3c4c(cc12)c(C)cc(=O)n4C(C(N)=O)O3 (centres unmarked) [Compound 4] | > 16 | 4 (≈ 12.3 µM) | 8300 ± 700 | > 16 |  | 
5 | Cc1cc(=O)n(C)c2c3c4c(cc12)c(C)cc(=O)n4C(C(=O)O)O3 (centres unmarked) [Compound 5] | > 32 | 2 (≈ 6.13 µM) | 3600 ± 600 | > 32 |  | 
6 | Cc1cc(=O)n(C)c2c3c4c(cc12)c(C)cc(=O)n4C(CC(=O)O)CO3 (centres unmarked) [Compound 6] | > 16 | 16 (≈ 45.2 µM) | > 10000 | > 32 |  | 
7 | Cc1cc(=O)n(C)c2c3c4c(cc12)c(C)cc(=O)n4C(CO)CO3 (centres unmarked) [Compound 7] | 16 (≈ 49 µM) | 0.25 (≈ 0.766 µM) | > 10000 | > 16 |  | remains effective against MRSA
8 | CC(=O)NCC1COc2c3c(cc4c(C)cc(=O)n1c24)c(C)cc(=O)n3C (centres unmarked) [Compound 8] | 32 (≈ 87.1 µM) | 0.5 (≈ 1.36 µM) | > 10000 | > 16 |  | 
9 | Cc1cc(=O)[nH]c2c3c4c(cc12)c(C)cc(=O)n4CCO3 [Compound 10] | 4 (≈ 14.2 µM) |  | 1600 ± 200 | > 32 |  | 
10 | Cc1cc(=O)[nH]c2c3c4c(cc12)c(C)cc(=O)n4C(CN)CO3 (centres unmarked) [Compound 11] | 4 (≈ 12.8 µM) |  | 860 ± 70 | 2 (≈ 6.42 µM) |  | 
11 | Cc1cc(=O)n(CCN)c2c3c4c(cc12)c(C)cc(=O)n4CCO3 [Compound 12] | 4 (≈ 12.3 µM) |  | 220 ± 60 | 4 (≈ 12.3 µM) |  | 
